Assay [1] has as its target T1, GST fusion human ERK2 protein (Homo sapiens, UniProt P28482).
T1 construct: purchased Carna Biosciences, Inc; host or cells: E. coli expression system
In words: ERK2 enzyme assay (2). Format: biochemical. The note with it: read-out: ERK2 enzyme inhibitory activity (2). An outline of the steps:
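IC50 values come from mobility-shift measurement of phosphorylated versus unphosphorylated 5-FAM peptide substrate after EDTA quench. Beforehand, compound and 1.25 nmol/L E. coli-expressed GST–human ERK2 stood 15 min at room temperature (pH 7.5), then 1 mmol/L ATP and 4.25 μmol/L substrate (final) were added for 120 min at 25 °C.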

Assay [2] has as its system CHO-K1 cells. In words: CHO cell toxicity test. The format is cell-based, Chinese hamster. The note with it: Cricetulus griseus; CHO-K1 cells, 24 hours culture with compound, CellTiter-Glo; read-out: IC50 value (concentration at which the number of viable cells was suppressed to 50% or less). An outline of the steps:
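CHO-K1 cells were cultured 24 h, then exposed 24 h to compound at final 25.00 to 0.20 μmol/L in F-12 with 2% FCS. Viability read by CellTiter-Glo luminescence; inhibition % = 100 − (treated/untreated signal)×100.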

For assay [3], the target named is T2, human PI3Kα protein (Homo sapiens, UniProt P42336).
T2 construct: purchased Carna Biosciences, Inc; host or cells: baculovirus expression system
In words: PI3Kα enzyme assay (ADP-Glo). Format: biochemical. The note with it: read-out: PI3Kα enzyme inhibitory activity. Summed up: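 Biotinylated human PI3Kα (baculovirus-expressed, 4.5 nmol/L) pre-incubated 15 min with compound in Tris-HCl pH 7.5, MgCl2, BSA; reaction 60 min at 25° C with 50 μmol/L PIP2 and 100 μmol/L ATP final. ADP quantified by ADP-Glo luminescence; IC50 calculated.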
(ADP-Glo first removes unused ATP, then detects ADP through luciferase.)

In assay [4] the target is T1, GST fusion human ERK2 protein. In words: ERK2 enzyme assay (1). Format: biochemical. The note with it: read-out: ERK2 enzyme inhibitory activity (1). Summed up: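 IC50 derived from the proportion of phosphorylated 5-FAM peptide, separated from unphosphorylated peptide by microfluidic mobility shift. Compound was first preincubated 15 min at room temperature with 2.5 nmol/L kinase at pH 7.5, then 43.1 μmol/L ATP plus 4.25 μmol/L substrate reacted 120 min at 25 °C.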

Where [5] appears, read: 4.5 nmol/L PI3Kα, PIP2 50 μmol/L, ATP 100 μmol/L.
Where [6] appears, read: 2.5 nmol/L ERK2, ATP 43.1 μmol/L.

Where two headings read alike, the source gives them in different places.

The source of these data is patent US9783536B2, “Nitrogen-containing heterocyclic compound or salt thereof” (FUJIFILM Corporation, priority 2013, dated 2017).

T1 sequence (P28482 whole entry, the tested form may be a part): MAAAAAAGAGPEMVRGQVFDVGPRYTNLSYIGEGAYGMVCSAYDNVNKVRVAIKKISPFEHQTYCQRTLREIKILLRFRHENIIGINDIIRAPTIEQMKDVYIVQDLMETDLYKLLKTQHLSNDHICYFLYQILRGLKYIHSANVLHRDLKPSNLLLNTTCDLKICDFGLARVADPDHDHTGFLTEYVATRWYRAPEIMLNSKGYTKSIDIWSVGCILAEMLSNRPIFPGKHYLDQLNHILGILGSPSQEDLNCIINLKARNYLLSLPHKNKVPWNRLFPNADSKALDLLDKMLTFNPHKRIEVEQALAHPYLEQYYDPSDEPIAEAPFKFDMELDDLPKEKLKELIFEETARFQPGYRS
T2 sequence (P42336 whole entry): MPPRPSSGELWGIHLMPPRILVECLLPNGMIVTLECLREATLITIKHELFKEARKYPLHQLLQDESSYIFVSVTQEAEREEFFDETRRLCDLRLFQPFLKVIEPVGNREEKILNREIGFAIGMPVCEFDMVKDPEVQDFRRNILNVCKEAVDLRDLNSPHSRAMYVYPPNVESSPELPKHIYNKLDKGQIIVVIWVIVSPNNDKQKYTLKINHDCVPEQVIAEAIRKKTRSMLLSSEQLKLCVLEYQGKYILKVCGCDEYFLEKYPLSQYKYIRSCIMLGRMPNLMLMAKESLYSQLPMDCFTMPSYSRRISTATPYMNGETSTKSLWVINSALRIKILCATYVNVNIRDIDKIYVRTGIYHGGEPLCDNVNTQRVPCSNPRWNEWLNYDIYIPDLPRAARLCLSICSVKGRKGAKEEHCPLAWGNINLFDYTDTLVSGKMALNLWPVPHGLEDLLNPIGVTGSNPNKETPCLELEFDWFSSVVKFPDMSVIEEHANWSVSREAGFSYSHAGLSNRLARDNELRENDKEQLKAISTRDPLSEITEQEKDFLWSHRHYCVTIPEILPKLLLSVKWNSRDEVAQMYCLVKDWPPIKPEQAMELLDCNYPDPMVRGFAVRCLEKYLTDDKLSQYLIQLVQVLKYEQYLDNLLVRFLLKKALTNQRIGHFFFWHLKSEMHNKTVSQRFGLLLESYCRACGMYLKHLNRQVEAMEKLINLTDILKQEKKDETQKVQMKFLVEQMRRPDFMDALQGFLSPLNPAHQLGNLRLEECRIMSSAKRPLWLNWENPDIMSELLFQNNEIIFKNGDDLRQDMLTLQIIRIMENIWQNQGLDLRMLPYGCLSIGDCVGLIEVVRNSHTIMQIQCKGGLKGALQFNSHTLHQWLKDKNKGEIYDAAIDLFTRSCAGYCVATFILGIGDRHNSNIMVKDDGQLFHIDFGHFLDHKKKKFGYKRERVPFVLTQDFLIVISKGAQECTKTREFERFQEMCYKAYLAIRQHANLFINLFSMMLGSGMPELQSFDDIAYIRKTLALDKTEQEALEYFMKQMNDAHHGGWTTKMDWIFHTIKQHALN
T2 sequence (P27986 whole entry partner): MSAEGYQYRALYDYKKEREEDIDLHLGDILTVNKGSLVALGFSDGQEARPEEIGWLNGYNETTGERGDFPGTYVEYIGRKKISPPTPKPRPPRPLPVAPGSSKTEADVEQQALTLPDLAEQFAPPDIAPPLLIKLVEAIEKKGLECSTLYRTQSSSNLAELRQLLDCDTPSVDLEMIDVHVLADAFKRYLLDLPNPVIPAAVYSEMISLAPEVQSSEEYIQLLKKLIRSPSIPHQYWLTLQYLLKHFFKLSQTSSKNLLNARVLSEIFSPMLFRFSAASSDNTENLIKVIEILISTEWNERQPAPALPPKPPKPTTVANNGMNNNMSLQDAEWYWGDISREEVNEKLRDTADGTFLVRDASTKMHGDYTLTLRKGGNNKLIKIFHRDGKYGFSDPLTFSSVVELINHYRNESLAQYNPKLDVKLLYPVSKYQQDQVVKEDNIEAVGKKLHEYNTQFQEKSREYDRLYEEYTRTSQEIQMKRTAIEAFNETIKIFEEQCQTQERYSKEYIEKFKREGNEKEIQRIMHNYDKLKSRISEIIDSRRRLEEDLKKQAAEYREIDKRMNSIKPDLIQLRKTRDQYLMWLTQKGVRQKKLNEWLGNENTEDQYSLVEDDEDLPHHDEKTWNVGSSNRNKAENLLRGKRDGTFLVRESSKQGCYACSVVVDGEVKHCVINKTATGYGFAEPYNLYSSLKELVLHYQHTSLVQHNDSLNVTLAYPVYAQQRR

With `c1nc2ccc(Nc3cc(C4CCC4)cnn3)nc2cc1-c1cnn(CCCN2CCCC2)c1` [Example 0015, N-(5-cyclobutylpyridazin-3-yl)-7-(1-(3-(pyrrolidin-1-yl)propyl)-1H-pyrazol-4-yl)-1,5-naphthyridine-2-amineformate], the IC50 was less than 1 µM in assay [1] (1.25 nmol/L ERK2, ATP 1 mmol/L); not below 25 µM in assay [2]; less than 1 µM in assay [3] (setting [5]); less than 1 µM in assay [4] (setting [6]).
In the case of `COCc1cnnc(Nc2ccc3ncc(-c4cnn(CCCN5CCCC5)c4)cc3n2)c1` [Example 0018], the IC50 in assay [1] (1.25 nmol/L ERK2, ATP 1 mmol/L) was less than 1 µM; in assay [2], not below 25 µM; in assay [3] (setting [5]), less than 1 µM; in assay [4] (setting [6]) it was less than 1 µM.
On to `Cc1nnc(Nc2ccc3ncc(-c4cnn(C)c4)cc3n2)s1` [Example 0027], for which the IC50 in assay [1] (1.25 nmol/L ERK2, ATP 1 mmol/L) was less than 1 µM; in assay [2], not below 25 µM; in assay [3] (setting [5]), less than 1 µM; in assay [4] (setting [6]), less than 1 µM.
Take `CCCc1nn(C)cc1-c1cnc2ccc(Nc3nnc(C(C)C)s3)nc2c1` [Example 0122]: the IC50 in assay [1] (1.25 nmol/L ERK2, ATP 1 mmol/L) is less than 1 µM; in assay [2] it was not below 25 µM; in assay [3] (setting [5]) it was less than 1 µM; in assay [4] (setting [6]), less than 1 µM.
Regarding `CCCCc1nn(C)cc1-c1cnc2ccc(Nc3nnc(C(C)C)s3)nc2c1` [Example 0130], the IC50 is less than 1 µM in assay [1] (1.25 nmol/L ERK2, ATP 1 mmol/L); not below 25 µM in assay [2]; less than 1 µM in assay [3] (setting [5]); less than 1 µM in assay [4] (setting [6]).
On to `c1cnnc(Nc2ccc3ncc(-c4cnn(CCCN5CCCC5)c4)cc3n2)c1` [Example 0137, N-(pyridazin-3-yl)-7-(1-(3-(pyrrolidin-1-yl)propyl)-1H-pyrazol-4-yl)-1,5-naphthyridine-2-amine], for which the IC50 in assay [1] (1.25 nmol/L ERK2, ATP 1 mmol/L) is less than 1 µM; in assay [2], not below 25 µM; in assay [3] (setting [5]), less than 1 µM; in assay [4] (setting [6]) it was less than 1 µM.
With `Cc1cnnc(Nc2ccc3ncc(-c4cnn(C)c4)cc3n2)c1` [Example 0139], the IC50 in assay [1] (1.25 nmol/L ERK2, ATP 1 mmol/L) was less than 1 µM; in assay [2], not below 25 µM; in assay [3] (setting [5]), less than 1 µM; in assay [4] (setting [6]), less than 1 µM.
As to `Cc1cnnc(Nc2ccc3ncc(-c4cnn(CCCN5CCCC5)c4)cc3n2)c1` [Example 0140], the IC50 in assay [1] (1.25 nmol/L ERK2, ATP 1 mmol/L) is less than 1 µM; in assay [2], not below 25 µM; in assay [3] (setting [5]), less than 1 µM; in assay [4] (setting [6]), less than 1 µM.
For the molecule `CC(C)c1cnnc(Nc2ccc3ncc(-c4cnn(C)c4)cc3n2)c1` [Example 0145], the IC50 in assay [1] (1.25 nmol/L ERK2, ATP 1 mmol/L) is less than 1 µM; in assay [2], not below 25 µM; in assay [3] (setting [5]) it was less than 1 µM; in assay [4] (setting [6]), less than 1 µM.
Regarding `CC(C)c1cnnc(Nc2ccc3ncc(-c4cnn(CCCN5CCCC5)c4)cc3n2)c1` [Example 0148], the IC50 in assay [1] (1.25 nmol/L ERK2, ATP 1 mmol/L) was less than 1 µM; in assay [2], not below 25 µM; in assay [3] (setting [5]), less than 1 µM; in assay [4] (setting [6]) it was less than 1 µM.
Turning to `Cc1[nH]ncc1-c1cnc2ccc(Nc3nnc(C4CCCC4)s3)nc2c1` [Example 0214], the IC50 in assay [1] (ERK2 enzyme assay (2)) is less than 1 µM; in assay [2], not below 25 µM; in assay [3], 1 to 10 µM; in assay [4] (ERK2 enzyme assay (1)), less than 1 µM.
For `Cn1cc(-c2cnc3ccc(Nc4nnc(N5CCOCC5)s4)nc3c2)cn1` [Example 0226, N-(7-(1-methyl-1H-pyrazol-4-yl)-1,5-naphthyridin-2-yl)-5-morpholino-1,3,4-thiadiazole-2-amine], the IC50 in assay [1] (ERK2 enzyme assay (2)) was less than 1 µM; in assay [2], not below 25 µM; in assay [3], 1 to 10 µM; in assay [4] (ERK2 enzyme assay (1)), less than 1 µM.
On to `Cn1cc(-c2cnc3ccc(Nc4nnc(C5CCCO5)s4)nc3c2)cn1` (stereo not shown) [Example 0227], for which the IC50 in assay [1] (ERK2 enzyme assay (2)) is less than 1 µM; in assay [2], not below 25 µM; in assay [3] it was less than 1 µM; in assay [4] (ERK2 enzyme assay (1)) it was less than 1 µM.
Turning to `Cn1cc(-c2cnc3ccc(Nc4nnc([C@H]5CCCO5)s4)nc3c2)cn1` [Example 0232], the results for the IC50 in assay [2], in assay [3] and in assay [4] (ERK2 enzyme assay (1)) were not below 25 µM, less than 1 µM and less than 1 µM, respectively.
Regarding `c1nc2ccc(Nc3nnc([C@@H]4CCCO4)s3)nc2cc1-c1cnn(CCCN2CCCC2)c1` [Example 0233], the IC50 is not below 25 µM in assay [2], less than 1 µM in assay [3] and less than 1 µM in assay [4] (ERK2 enzyme assay (1)).
Take `c1nc2ccc(Nc3nnc([C@H]4CCCO4)s3)nc2cc1-c1cnn(CCCN2CCCC2)c1` [Example 0237]: the values for the IC50 in assay [2], in assay [3] and in assay [4] (ERK2 enzyme assay (1)) were not below 25 µM, less than 1 µM and less than 1 µM, respectively.
As for `c1nc2ccc(Nc3nnc(C4CCOC4)s3)nc2cc1-c1cnn(CCCN2CCCC2)c1` (stereo not shown) [Example 0238], the IC50 in assay [2] is not below 25 µM; in assay [3], less than 1 µM; in assay [4] (ERK2 enzyme assay (1)), less than 1 µM.
Regarding `c1nc2ccc(Nc3nnc(C4CCOCC4)s3)nc2cc1-c1cnn(CCCN2CCCC2)c1` [Example 0245], the IC50 in assay [2] is not below 25 µM; in assay [3], less than 1 µM; in assay [4] (ERK2 enzyme assay (1)), less than 1 µM.
With `c1nc2ccc(Nc3cc(C4CC4)cnn3)nc2cc1-c1cnn(CCCN2CCOCC2)c1` [Example 0298, N-(5-cyclopropylpyridazin-3-yl)-7-(1-(3-morpholinopropyl)-1H-pyrazol-4-yl)-1,5-naphthyridine-2-amine], the IC50 in assay [2] is not below 25 µM; in assay [3] it was less than 1 µM; in assay [4] (ERK2 enzyme assay (1)), less than 1 µM.
`CN(C)CCCn1cc(-c2cnc3ccc(Nc4nncs4)nc3c2)cn1` [Example 0301]: the values for the IC50 in assay [2], in assay [3] and in assay [4] (ERK2 enzyme assay (1)) were not below 25 µM, less than 1 µM and less than 1 µM, respectively.
In the case of `Cc1nnc(Nc2ccc3ncc(-c4cnn(CCCN(C)C)c4)cc3n2)s1` [Example 0302], the IC50 is not below 25 µM in assay [2], less than 1 µM in assay [3] and less than 1 µM in assay [4] (ERK2 enzyme assay (1)).
As for `c1nc2ccc(Nc3nnc(C4CCCO4)s3)nc2cc1-c1cnn(CCCN2CCCC2)c1` (stereo not shown) [Example 0325, N-(7-(1-(3-(pyrrolidin-1-yl)propyl)-1H-pyrazol-4-yl)-1,5-naphthyridin-2-yl)-5-(tetrahydrofuran-2-yl)-1,3,4-thiadiazole-2-amine], the figures for the IC50 in assay [2], in assay [3] and in assay [4] (ERK2 enzyme assay (1)) were not below 25 µM, less than 1 µM and less than 1 µM, respectively.
Regarding `c1nc2ccc(Nc3nnc(C4CC4)s3)nc2cc1-c1cnn(CCCN2CCCC2)c1` [Example 0362], the IC50 in assay [2] was not below 25 µM; in assay [3], less than 1 µM; in assay [4] (ERK2 enzyme assay (1)), less than 1 µM.
For the molecule `CCc1nnc(Nc2ccc3ncc(-c4cnn(CCCN5CCCC5)c4)cc3n2)s1` [Example 0363], the results for the IC50 in assay [2], in assay [3] and in assay [4] (ERK2 enzyme assay (1)) were not below 25 µM, less than 1 µM and less than 1 µM, respectively.
In the case of `CC(C)c1cnnc(Nc2ccc3ncc(-c4cnn(CCCN5CCCCC5)c4)cc3n2)c1` [Example 0373, N-(5-isopropylpyridazin-3-yl)-7-(1-(3-(piperidin-1-yl)propyl)-1H-pyrazol-4-yl)-1,5-naphthyridine-2-amine], the IC50 in assay [2] is not below 25 µM; in assay [3], less than 1 µM; in assay [4] (ERK2 enzyme assay (1)), less than 1 µM.
As for `CCN(CC)CCCn1cc(-c2cnc3ccc(Nc4cc(C(C)C)cnn4)nc3c2)cn1` [Example 0374, 7-(1-(3-(Diethylamino)propyl)-1H-pyrazol-4-yl)-N-(5-isopropylpyridazin-3-yl)-1,5-naphthyridine-2-amine], the IC50 was not below 25 µM in assay [2], less than 1 µM in assay [3] and less than 1 µM in assay [4] (ERK2 enzyme assay (1)).
For `CCCc1nn(CCCN2CCOCC2)cc1-c1cnc2ccc(Nc3cc(C(C)C)cnn3)nc2c1` [Example 0390, N-(5-isopropylpyridazin-3-yl)-7-(1-(3-morpholinopropyl)-3-propyl-1H-pyrazol-4-yl)-1,5-naphthyridine-2-amine], the IC50 is not below 25 µM in assay [2], less than 1 µM in assay [3] and less than 1 µM in assay [4] (ERK2 enzyme assay (1)).
On to `CC(C)c1cnnc(Nc2ccc3ncc(-c4cnn(CCOC5CCOCC5)c4)cc3n2)c1` [Example 0395], for which the IC50 in assay [2] is not below 25 µM; in assay [3] it was less than 1 µM; in assay [4] (ERK2 enzyme assay (1)) it was less than 1 µM.
As to `CC(C)c1cnnc(Nc2ccc3ncc(-c4cnn(CCC(O)C(F)(F)F)c4)cc3n2)c1` (stereo not shown) [Example 0400], the IC50 in assay [2] is not below 25 µM; in assay [3] it was less than 1 µM; in assay [4] (ERK2 enzyme assay (1)), less than 1 µM.
Take `CC(C)(CO)c1cnnc(Nc2ccc3ncc(-c4cnn(CCCN5CCCC5)c4)cc3n2)c1` [Example 0405, 2-methyl-2-(6-((7-(1-(3-(pyrrolidin-1-yl)propyl)-1H-pyrazol-4-yl)-1,5-naphthyridin-2-yl)amino)pyridazin-4-yl)propan-1-ol]: the values for the IC50 in assay [2], in assay [3] and in assay [4] (ERK2 enzyme assay (1)) were not below 25 µM, less than 1 µM and less than 1 µM, respectively.
As to `CC(C)c1cnnc(Nc2ccc3ncc(-c4ccncc4)cc3n2)c1` [Example 0406], the IC50 was not below 25 µM in assay [2], less than 1 µM in assay [3] and less than 1 µM in assay [4] (ERK2 enzyme assay (1)).
